# Laboratory results from patent US20260258064A1 (SIRONAX LTD., priority 2023, published 2026).
# Target: T1, SARM1 (50-724) (Homo sapiens, UniProt Q6SZW1)
# T1 construct: Purified SARM1 (50-724) with a final concentration of 2 nM was pre-incubated with a test compound
# T1 sequence (Q6SZW1 50-724): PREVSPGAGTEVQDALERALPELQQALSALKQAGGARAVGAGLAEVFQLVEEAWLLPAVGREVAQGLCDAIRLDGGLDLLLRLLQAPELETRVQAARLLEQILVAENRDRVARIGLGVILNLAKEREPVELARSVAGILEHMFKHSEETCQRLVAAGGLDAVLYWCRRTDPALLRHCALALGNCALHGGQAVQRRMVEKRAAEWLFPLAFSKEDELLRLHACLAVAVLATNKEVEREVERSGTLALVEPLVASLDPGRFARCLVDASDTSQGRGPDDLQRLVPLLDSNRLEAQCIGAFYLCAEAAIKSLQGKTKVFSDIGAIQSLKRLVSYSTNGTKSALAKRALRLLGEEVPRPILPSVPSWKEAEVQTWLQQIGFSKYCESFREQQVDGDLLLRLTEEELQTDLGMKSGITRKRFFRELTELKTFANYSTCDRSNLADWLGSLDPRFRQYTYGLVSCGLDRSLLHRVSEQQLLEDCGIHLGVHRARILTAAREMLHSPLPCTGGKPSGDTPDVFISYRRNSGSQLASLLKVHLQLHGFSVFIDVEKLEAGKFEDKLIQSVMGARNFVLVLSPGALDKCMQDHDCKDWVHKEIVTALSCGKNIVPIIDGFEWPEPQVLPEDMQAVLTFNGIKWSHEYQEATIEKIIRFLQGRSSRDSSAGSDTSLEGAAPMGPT
# Test: SARM1 (50-724) enzymatic assay (LC-MS/MS)
# Type: biochemical
# Details: Purified SARM1 (50-724) 2 nM, NMN as activator, NAD+ as substrate, 1 h at room temperature, read-out: IC50 (SARM1 inhibitory activity)
# In short: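 Reaction buffer was Dulbecco's PBS. Compound and 2 nM human SARM1 (50-724) were pre-incubated 15 min at room temperature, then […] NAD^+ and 200 µM NMN activator were added for 1 h at room temperature. Acetonitrile (70%) stop, LC-MS/MS read-out, IC50 values.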
row,Structure (SMILES),IC50 [µM]
1,"Cn1cc(-c2cccc(Cl)c2Cl)c(-c2nc3cc(C(C)(C)O)ccc3[nH]2)cc1=O [Example 83, 5-(2,3-Dichlorophenyl)-4-(5-(2-hydroxypropan-2-yl)-1H-benzo[d]imidazol-2-yl)-1-methylpyridin-2 (1H)-one]",> 1
2,"N#CCc1cccc2[nH]c(-c3nncn3-c3cnccc3C(F)(F)F)nc12 [Compound 437, 2-(2-(4-(4-(trifluoromethyl)pyridin-3-yl)-4H-1,2,4-triazol-3-yl)-1H-benzo[d]imidazol-4-yl)acetonitrile]",> 1
3,"CS(=O)(=O)c1ccc2[nH]c(-c3nncn3-c3cccc(Cl)c3Cl)nc2c1 [Example 46, 2-(4-(2,3-dichlorophenyl)-4H-1,2,4-triazol-3-yl)-5-(methylsulfonyl)-1H-benzo[d]imidazole]",0.1 to 0.5
4,"OCCOc1cc(-n2cnnc2-c2nc3cc(C(F)(F)F)ccc3[nH]2)c(OC(F)(F)F)cc1F [Compound 263, 2-(2-fluoro-4-(trifluoromethoxy)-5-(3-(5-(trifluoromethyl)-1H-benzo[d]imidazol-2-yl)-4H-1,2,4-triazol-4-yl)phenoxy)ethan-1-ol]",≤ 0.1
5,"CC(C)(C)c1ccc2[nH]c(-c3nncn3-c3nc(O)ccc3Cl)nc2c1 [Compound 148, 6-(3-(5-(tert-butyl)-1H-benzo[d]imidazol-2-yl)-4H-1,2,4-triazol-4-yl)-5-chloropyridin-2(1H)-one]",≤ 0.1
6,"FC(F)(F)c1ccc2[nH]c(-c3nncn3-c3cnncc3C3CC3)nc2c1 [Compound 220, 2-(4-(5-cyclopropylpyridazin-4-yl)-4H-1,2,4-triazol-3-yl)-5-(trifluoromethyl)-1H-benzo[d]imidazole]",0.1 to 0.5
7,"Clc1cccc(-n2cnnc2-c2nc3cc(-c4cncnc4)ccc3[nH]2)c1Cl [Example 73, 2-(4-(2,3-dichlorophenyl)-4H-1,2,4-triazol-3-yl)-5-(pyrimidin-5-yl)-1H-benzo[d]imidazole]",0.1 to 0.5
8,"Fc1cc(C2(F)CC2)cc2nc(-c3nnccc3-c3nnccc3C(F)(F)F)[nH]c12 [Compound 466, 7-fluoro-5-(1-fluorocyclopropyl)-2-(4-(trifluoromethyl)-[3,4′-bipyridazin]-3′-yl)-1H-benzo[d]imidazole]",≤ 0.1
9,"COc1cc(F)c2[nH]c(-c3nncn3-c3cnccc3C(F)(F)F)nc2c1 [Compound 328, 7-fluoro-5-methoxy-2-(4-(4-(trifluoromethyl)pyridin-3-yl)-4H-1,2,4-triazol-3-yl)-1H-benzo[d]imidazole]",≤ 0.1
10,"Cc1cc(C(F)(F)F)c(-n2cnnc2-c2nc3cc(C(F)(F)F)ccc3[nH]2)nn1 [Compound 391, 2-(4-(6-methyl-4-(trifluoromethyl)pyridazin-3-yl)-4H-1,2,4-triazol-3-yl)-5-(trifluoromethyl)-1H-benzo[d]imidazole]",0.1 to 0.5
11,Cn1cc(-c2ccc(Cl)cc2)c(-c2nc3cc(C(F)(F)F)ccc3[nH]2)cc1=O [Example 98],> 1
12,FC(F)(F)c1ccc2[nH]c(-c3nncn3-c3cccc(Cl)c3Br)nc2c1 [Example 119],≤ 0.1
13,"Nc1nnc(-c2nc3cc(C(F)(F)F)ccc3[nH]2)n1-c1cccc(F)c1Cl [Compound 396, 4-(2-chloro-3-fluorophenyl)-5-(5-(trifluoromethyl)-1H-benzo[d]imidazol-2-yl)-4H-1,2,4-triazol-3-amine]",≤ 0.1
14,"CCN(C)C(=O)c1ccc2[nH]c(-c3nncn3-c3ccc(F)c(F)c3Cl)nc2c1 [Compound 172, 2-(4-(2-chloro-3,4-difluorophenyl)-4H-1,2,4-triazol-3-yl)-N-ethyl-N-methyl-1H-benzo[d]imidazole-5-carboxamide]",> 1
15,"FC(F)(F)c1ccc2[nH]c(-c3nncn3-c3cnccc3C(F)(F)F)c(C3CC3)c2c1 [Compound 366, 3-cyclopropyl-5-(trifluoromethyl)-2-(4-(4-(trifluoromethyl)pyridin-3-yl)-4H-1,2,4-triazol-3-yl)-1H-indole]",≤ 0.1
16,FC(F)(F)c1ccc2[nH]c(-c3cnncc3-c3cccc(Cl)c3Cl)nc2c1 [Example 44],0.1 to 0.5
17,COC(=O)C(C)(C)c1ccc2[nH]c(-c3nncn3-c3cccc(Cl)c3Cl)nc2c1 [Example 102],≤ 0.1
18,"N#CC1(c2cccc3[nH]c(-c4nncn4-c4cnccc4C(F)(F)F)nc23)CC1 [Compound 442, 1-(2-(4-(4-(trifluoromethyl)pyridin-3-yl)-4H-1,2,4-triazol-3-yl)-1H-benzo[d]imidazol-4-yl)cyclopropane-1-carbonitrile]",0.1 to 0.5
19,"CC(c1ccncc1)c1cc(F)c2[nH]c(-c3nnccc3-c3cnccc3C(F)(F)F)nc2c1 (centres unmarked) [Compound 460, 7-fluoro-5-(1-(pyridin-4-yl)ethyl)-2-(4-(4-(trifluoromethyl)pyridin-3-yl)pyridazin-3-yl)-1H-benzo[d]imidazole]",≤ 0.1
20,"FC(F)(F)Oc1ccc2[nH]c(-c3nncn3-c3cccc(Cl)c3Cl)nc2c1 [Example 132, 2-(4-(2,3-dichlorophenyl)-4H-1,2,4-triazol-3-yl)-5-(trifluoromethoxy)-1H-benzo[d]imidazole]",≤ 0.1
21,"Cc1ccc2[nH]c(C3=C(C4CCCC4)C(=O)OC3)nc2c1 [Compound 8, 3-Cyclopentyl-4-(5-methyl-1H-benzo[d]imidazol-2-yl)furan-2(5H)-one]",> 1
22,"FC(F)(F)c1ccc2[nH]c(-c3nncn3-c3cnccc3C(F)(F)F)c(-c3cccnc3)c2c1 [Compound 387, 3-(pyridin-3-yl)-5-(trifluoromethyl)-2-(4-(4-(trifluoromethyl)pyridin-3-yl)-4H-1,2,4-triazol-3-yl)-1H-indole]",≤ 0.1
23,"FC(F)(F)c1ccc2[nH]c(-c3nncn3-c3nnccc3C(F)(F)F)nc2c1 [Compound 429, 5-(trifluoromethyl)-2-(4-(4-(trifluoromethyl)pyridazin-3-yl)-4H-1,2,4-triazol-3-yl)-1H-benzo[d]imidazole]",≤ 0.1
24,"Fc1c(CC(F)F)cc(F)c2[nH]c(-c3nncn3-c3cnccc3C(F)(F)F)nc12 [Compound 329, 5-(2,2-difluoroethyl)-4,7-difluoro-2-[4-[4-(trifluoromethyl)-3-pyridyl]-1,2,4-triazol-3-yl]-1H-benzimidazole]",≤ 0.1
25,FC(F)(F)c1ccc2[nH]c(-c3nnnn3-c3cccc(Cl)c3Cl)nc2c1 [Example 99],0.1 to 0.5
26,"Fc1ccc(-n2cnnc2-c2nc3cc(C(F)(F)F)cnc3[nH]2)c(Cl)c1F [Compound 170, 2-(4-(2-chloro-3,4-difluorophenyl)-4H-1,2,4-triazol-3-yl)-6-(trifluoromethyl)-3H-imidazo[4,5-b]pyridine]",≤ 0.1
27,Cc1nsc(-n2cnnc2-c2nc3cc(C(F)(F)F)ccc3[nH]2)c1Cl [Compound 69],0.1 to 0.5
28,"FC(F)(F)c1ccc2[nH]c(-c3nncnc3-c3cccc(Cl)c3Cl)nc2c1 [Compound 307, 2-(5-(2,3-dichlorophenyl)-1,2,4-triazin-6-yl)-5-(trifluoromethyl)-1H-benzo[d]imidazole]",≤ 0.1
29,"Oc1cc(-c2ccccc2Cl)c(-c2nc3cc(C(F)(F)F)ccc3[nH]2)nn1 [Compound 406, 5-(2-chlorophenyl)-6-(5-(trifluoromethyl)-1H-benzo[d]imidazol-2-yl)pyridazin-3-ol]",0.1 to 0.5
